# In patent publication US11771765B2, “Light augmented treatment method” (The Procter & Gamble Company, priority 2019, dated 2023):
# Tested on: M. furfur
# Assay: M. furfur viability on mDixon agar plates after Piroctone Olamine and 409 nm light (Table 3)
# Assay type: cell-based, Malassezia furfur
# Design: key to growth on mDixon agar plate (score): +: a continuous fungal lawn; +/−: a lawn with breaks allowing the agar to show; −: 0 to 5 colonies
# Method: M. furfur is incubated for one hour with the indicated concentrations of Piroctone Olamine then a cell pellet of 4 OD*mL is collected by centrifugation so that most of the anti-fungal material has been removed. The cell pellet is suspended in 4.2 mL PBS and 1 mL samples are distributed to four 12 well plates and treated with light (409 nm, 1200 fc) for 1, 10 or 60 minutes or stored in the dark. Samples are processed as described previously with 600 uL diluted into 13 mL mDixon and 50 uL of the photolyzed cells are diluted into 50 uL of mDixon then three 40 uL+360 uL mDixon dilutions are prepared.
# Where +=a continuous fungal lawn, +/−=a lawn with breaks allowing the agar to show, −=0 to 5 colonies
# After the photolysis, 0.6 mL is added to 13 mL fresh mDixon and grown overnight but, in addition, 50 uL is added to 50 uL mDixon then that sample is diluted 3 more times 40 uL=>400 uL and 10 uL of each of the dilutions are plated in duplicate on mDixon agar plates.
smiles,measurement,setting,value
"Cc1cc(CC(C)CC(C)(C)C)n(O)c(=O)c1.NCCO (centres unmarked) [Piroctone Olamine, 1-Hydroxy-4-methyl-6-(2,4,4-trimethylpentyl)-2-pyridone monoethanolamine salt]",effect of light on viable cells,8 ppm,no effect
same,holding growth down overnight in the original samples,8 ppm,does not hold M. furfur growth down overnight
same,growth on mDixon agar plate (score),"8 ppm 1 h, culture dilution 1:2, 409 nm light 1 min",+
same,growth on mDixon agar plate (score),"8 ppm 1 h, culture dilution 1:2, 409 nm light 10 min",+
same,growth on mDixon agar plate (score),"8 ppm 1 h, culture dilution 1:2, 409 nm light 60 min",+
same,growth on mDixon agar plate (score),"8 ppm 1 h, culture dilution 1:2, Dark",+
same,growth on mDixon agar plate (score),"8 ppm 1 h, culture dilution 1:20, 409 nm light 1 min",+
same,growth on mDixon agar plate (score),"8 ppm 1 h, culture dilution 1:20, 409 nm light 10 min",+
same,growth on mDixon agar plate (score),"8 ppm 1 h, culture dilution 1:20, 409 nm light 60 min",+
same,growth on mDixon agar plate (score),"8 ppm 1 h, culture dilution 1:20, Dark",+
same,growth on mDixon agar plate (score),"8 ppm 1 h, culture dilution 1:200, 409 nm light 1 min",+/−
same,growth on mDixon agar plate (score),"8 ppm 1 h, culture dilution 1:200, 409 nm light 10 min",+/−
same,growth on mDixon agar plate (score),"8 ppm 1 h, culture dilution 1:200, 409 nm light 60 min",+/−
same,growth on mDixon agar plate (score),"8 ppm 1 h, culture dilution 1:200, Dark",+/−
same,growth on mDixon agar plate (score),"8 ppm 1 h, culture dilution 1:2000, 409 nm light 1 min",+/−
same,growth on mDixon agar plate (score),"8 ppm 1 h, culture dilution 1:2000, 409 nm light 10 min",+/−
same,growth on mDixon agar plate (score),"8 ppm 1 h, culture dilution 1:2000, 409 nm light 60 min",+/−
same,growth on mDixon agar plate (score),"8 ppm 1 h, culture dilution 1:2000, Dark",+/−
same,holding growth down overnight in the original samples,16 and 32 ppm,16 and 32 ppm do
same,fewer viable cells,"16 and 32 ppm, 1 minute of light exposure",about 10 fold
same,fewer cells,"16 and 32 ppm, longer light exposures",> 100 fold
same,growth on mDixon agar plate (score),"16 ppm 1 h, culture dilution 1:2, 409 nm light 1 min",+
same,growth on mDixon agar plate (score),"16 ppm 1 h, culture dilution 1:2, 409 nm light 10 min",+/−
same,growth on mDixon agar plate (score),"16 ppm 1 h, culture dilution 1:2, 409 nm light 60 min",+/−
same,growth on mDixon agar plate (score),"16 ppm 1 h, culture dilution 1:2, Dark",+
same,growth on mDixon agar plate (score),"16 ppm 1 h, culture dilution 1:20, 409 nm light 1 min",+/−
same,growth on mDixon agar plate (score),"16 ppm 1 h, culture dilution 1:20, 409 nm light 10 min",+/−
same,growth on mDixon agar plate (score),"16 ppm 1 h, culture dilution 1:20, 409 nm light 60 min",+/−
same,growth on mDixon agar plate (score),"16 ppm 1 h, culture dilution 1:20, Dark",+
same,growth on mDixon agar plate (score),"16 ppm 1 h, culture dilution 1:200, 409 nm light 1 min",+/−
same,growth on mDixon agar plate (score),"16 ppm 1 h, culture dilution 1:200, 409 nm light 10 min",− (0 to 5 colonies)
same,growth on mDixon agar plate (score),"16 ppm 1 h, culture dilution 1:200, 409 nm light 60 min",− (0 to 5 colonies)
same,growth on mDixon agar plate (score),"16 ppm 1 h, culture dilution 1:200, Dark",+/−
same,growth on mDixon agar plate (score),"16 ppm 1 h, culture dilution 1:2000, 409 nm light 1 min",+/−
same,growth on mDixon agar plate (score),"16 ppm 1 h, culture dilution 1:2000, 409 nm light 10 min",− (0 to 5 colonies)
same,growth on mDixon agar plate (score),"16 ppm 1 h, culture dilution 1:2000, 409 nm light 60 min",− (0 to 5 colonies)
same,growth on mDixon agar plate (score),"16 ppm 1 h, culture dilution 1:2000, Dark",+/−
same,growth on mDixon agar plate (score),"32 ppm 1 h, culture dilution 1:2, 409 nm light 1 min",+
same,growth on mDixon agar plate (score),"32 ppm 1 h, culture dilution 1:2, 409 nm light 10 min",+/−
same,growth on mDixon agar plate (score),"32 ppm 1 h, culture dilution 1:2, 409 nm light 60 min",+/−
same,growth on mDixon agar plate (score),"32 ppm 1 h, culture dilution 1:2, Dark",+
same,growth on mDixon agar plate (score),"32 ppm 1 h, culture dilution 1:20, 409 nm light 1 min",+/−
same,growth on mDixon agar plate (score),"32 ppm 1 h, culture dilution 1:20, 409 nm light 10 min",+/−
same,growth on mDixon agar plate (score),"32 ppm 1 h, culture dilution 1:20, 409 nm light 60 min",+/−
same,growth on mDixon agar plate (score),"32 ppm 1 h, culture dilution 1:20, Dark",+
same,growth on mDixon agar plate (score),"32 ppm 1 h, culture dilution 1:200, 409 nm light 1 min",+/−
same,growth on mDixon agar plate (score),"32 ppm 1 h, culture dilution 1:200, 409 nm light 10 min",+/−
same,growth on mDixon agar plate (score),"32 ppm 1 h, culture dilution 1:200, 409 nm light 60 min",− (0 to 5 colonies)
same,growth on mDixon agar plate (score),"32 ppm 1 h, culture dilution 1:200, Dark",+/−
same,growth on mDixon agar plate (score),"32 ppm 1 h, culture dilution 1:2000, 409 nm light 1 min",+/−
same,growth on mDixon agar plate (score),"32 ppm 1 h, culture dilution 1:2000, 409 nm light 10 min",− (0 to 5 colonies)
same,growth on mDixon agar plate (score),"32 ppm 1 h, culture dilution 1:2000, 409 nm light 60 min",− (0 to 5 colonies)
same,growth on mDixon agar plate (score),"32 ppm 1 h, culture dilution 1:2000, Dark",+/−
